The values below come from patent US20070299084A1, “Indole Derivatives Useful for Treating Resistance to Antitumor Agents” (NIKEM RESE S.R.L., priority 2004, published 2007).

Assay [1] deals with LoVo/Dx cells (doxorubicin-resistant human colon carcinoma, P-glycoprotein overexpression). The experiment in a line: Antiproliferative activity, 72 h treatment, SRB assay, LoVo/Dx. Type of assay: cell-based. An excerpt: LoVo and LoVo/Dx (line obtained by prolonged exposure to doxorubicin and characterised by overerexpression of P-glycoprotein, which confers resistance to doxorubicin): maintained in HAM-F12 medium+10% FCS.
Background: In SRB staining, fixed cells bind dye roughly in proportion to their protein.

Assay [2] has as its system HT29 line. Kind of assay: Apoptosis experiment (Tunel). Type of assay: cell-based, human. The protocol:
1.5×10^6 cells/sample are seeded. After 24 hours the cells are treated with the compounds for 48 or 72 hours. At the end of the treatment, the cells are detached with Trypsin/EDTA, washed in PBS (phosphate buffered solution) and incubated for 45 minutes at room temperature in 1 ml of 4% paraformaldehyde.
The cells are then washed with PBS and resuspended in 100 μl of permeabilizing solution (0.1% triton in 0.1% sodium citrate) for 2 minutes in ice. After a further wash, the cells are resuspended in 50 μl of Tunel reaction mix (Boehringer Mannheim) and left at 37° C. for 1 hour in the dark. After washing in PBS, the cells are resuspended in PBS and analysed by cytofluorimeter or examined by fluorescence microscope.

The test system of assay [3] is HT29/Mit human colon carcinoma xenografts. The experiment in a line: HT29/Mit human colon carcinoma xenografts, antitumor activity. The conditions noted are these: HT29/Mit xenograft, p.o.; topotecan 15 mg/Kg every 4 days for 3 administrations; compound of example 2 30 mg/kg; alone or combined. Format: in vivo, athymic Swiss nude mice. The method, then: Female athymic Swiss nude mice (8-10 weeks old) (Charles River, Calco, Italy) were used for the experiments. The animals were maintained at constant temperature and humidity, and were allowed to eat and drink freely. The experimental protocol was approved by the Ethics Committee for Animal Experimentation of the Istituto Nazionale Tumori of Milan.
The antitumour effectiveness of the compounds of the invention under discussion was tested on athymic mouse models implanted with HT29 and/or HT29/Mit tumour cells: this latter variety is highly resistant to topotecan treatment. The tumour cells were implanted in vivo via subcutaneous injection of 10^7 cells taken from in vitro cultures. Randomized groups of five mice with bilateral subcutaneous tumours were used for the experiment.
Topotecan or other known antitumour agents (dissolved in distilled water or an appropriate solvent) and the compounds of the invention (dissolved in Cremophor EL:ethanol:saline solution in the proportions 5:5:90, or in an appropriate solvent) were administered orally from the third day, alone or in combination, in agreement with a treatment scheme selected in an appropriate manner depending on the type of compound to be studied.
The weight (or volume) of the tumour in treated mice compared to controls is represented graphically on the y-axis against time (x-axis).
(Xenograft models place foreign cells or tissue in a host animal.)

[4] abbreviates: cell line not stated in the sentence (follows LoVo/DX).

Regarding `CCOc1cc(C(=O)NC2CC(C)(C)NC(C)(C)C2)ccc1-c1cc2cc(Cl)c(Cl)cc2[nH]1` [Example 2], the IC50 in assay [1] (Homo sapiens, LoVo/DX, 72 h, read-out: Antiproliferative activity (IC50 ± S.D., μM) LoVo/Dx) turned out to be 3 ± 1.3 µM. Also, in assay [1] (LoVo/DX variant (MDR phenotype), compared with LoVo), the “Interaction with SN38” value is “even more evident”. For the same molecule, in assay [1] (setting [4]), the Interaction with doxorubicin entry was “Synergistic interactions” and the Interaction with taxol result is given as “Synergistic interactions”. For the same molecule, in assay [2], the Induction of apoptosis result was “high level of apoptosis”. Moreover, the “Inhibition of tumour growth” value in assay [3] is “poorly effective”.
